Measured values reported in patent publication US20160194299A1 (priority 2013, published 2016).
Converted amounts (≈) assume the structure as drawn. Read-outs that look alike come from different tables or passages of the source.

What was measured:
Mtb [1] = assay: microbe, parasite or virus in culture; format: cell-based, Mycobacterium tuberculosis; settings: Mycobacterium tuberculosis, read-out: MIC (I)
Mtb [2] = assay: microbe, parasite or virus in culture; format: cell-based, Mycobacterium tuberculosis; settings: Mycobacterium tuberculosis, read-out: MIC (III)
in vitro = settings: African green monkey

SMILES | MIC (Mtb [1]) | MIC (Mtb [2]) | CC50 (in vitro)
CC(C)(C)C(=O)Nc1cc(C(=O)Nc2sccc2C(=O)NC(=O)OCCF)ccn1 [Compound 29] | < 1 µg/mL | > 25 µg/mL | 25 to 50 µg/mL (≈ 57.3 to 115 µM)
CCC(CC)OC(=O)NC(=O)c1ccsc1NC(=O)c1cnc2ccnn2c1 [Compound 327] | 1 to 3 µg/mL (≈ 2.49 to 7.47 µM) | > 25 µg/mL | < 25 µg/mL
O=C(NC(=O)c1ccsc1NC(=O)c1cnc2ccnn2c1)OCc1ccccc1F [Compound 285] | > 3 µg/mL | > 25 µg/mL | < 25 µg/mL
O=C(NC(=O)c1ccsc1NC(=O)c1nc2cnccc2s1)OC1CCOC1 (stereo not drawn) [Compound 102] | < 1 µg/mL | < 5 µg/mL | > 50 µg/mL
CCOC(=O)NC(=O)c1ccsc1NC(=O)c1sc(C)nc1C(F)(F)F [Compound 137] | > 3 µg/mL | > 25 µg/mL | > 50 µg/mL
CCOC(=O)NC(=O)c1ccsc1NC(=O)c1ccnc(NC(=O)N2CCN(C)CC2)c1.Cl.Cl [Compound 49] | 1 to 3 µg/mL | > 25 µg/mL | > 50 µg/mL
COC(=O)NC(=O)c1ccsc1NC(=O)c1cnc2ccnn2c1 [Compound 313] | > 3 µg/mL | > 25 µg/mL | 25 to 50 µg/mL (≈ 72.4 to 145 µM)
O=C(NC(=O)c1ccsc1NC(=O)c1cnc2ccnn2c1)OCc1ccccc1 [Compound 300] | > 3 µg/mL | > 25 µg/mL | 25 to 50 µg/mL (≈ 59.3 to 119 µM)
O=C(NC(=O)c1ccsc1NC(=O)c1nc2cnccc2s1)OCCOCc1ccccc1 [Compound 369] | < 1 µg/mL | > 25 µg/mL | 25 to 50 µg/mL (≈ 51.8 to 104 µM)
CCOC(=O)NC(=O)c1ccsc1NC(=O)c1nc2ccc(NC(=O)CN)cc2s1 [Compound 393] | > 3 µg/mL | > 25 µg/mL | < 25 µg/mL
COCCOC(=O)NC(=O)c1ccsc1NC(=O)c1cnc2ccnn2c1 [Compound 372] | < 1 µg/mL | > 25 µg/mL | 25 to 50 µg/mL (≈ 64.2 to 128 µM)
O=C(NC(=O)c1ccsc1NC(=O)c1nc2ccccc2s1)OC1COC1 [Compound 35] | < 1 µg/mL | > 25 µg/mL | < 25 µg/mL
O=C(NC(=O)c1ccsc1NC(=O)c1nc2ccccc2s1)OCCF [Compound 37] | < 1 µg/mL | > 25 µg/mL | > 50 µg/mL
CCOC(=O)NC(=O)c1ccsc1NC(=O)Nc1nc2ccccc2s1 [Compound 312] | > 3 µg/mL | > 25 µg/mL | 25 to 50 µg/mL (≈ 64 to 128 µM)
CC(C)OC(=O)NC(=O)c1cc(F)sc1NC(=O)c1nc2ccccc2s1 [Compound 342] | < 1 µg/mL | 5 to 25 µg/mL (≈ 12.3 to 61.4 µM) | 25 to 50 µg/mL (≈ 61.4 to 123 µM)
CCOC(=O)NC(=O)c1c(C)csc1NC(=O)c1ccc2scnc2c1 [Compound 146] | > 3 µg/mL | > 25 µg/mL | > 50 µg/mL
CCOC(=O)NC(=O)c1ccsc1NC(=O)c1nc2c(N3CCN(C)CC3)nccc2s1 [Compound 262] | 1 to 3 µg/mL (≈ 2.11 to 6.32 µM) | 5 to 25 µg/mL (≈ 10.5 to 52.7 µM) | 25 to 50 µg/mL (≈ 52.7 to 105 µM)
CCOC(=O)NC(=O)c1ccsc1NC(=O)c1nc2c(s1)CCN(C)C2 [Compound 85] | 1 to 3 µg/mL (≈ 2.53 to 7.6 µM) | < 5 µg/mL | > 50 µg/mL
CC(C)OC(=O)NC(=O)c1ccsc1NC(=O)c1cc2ncccn2n1 [Compound 340] | < 1 µg/mL | > 25 µg/mL | 25 to 50 µg/mL (≈ 67 to 134 µM)
CCOC(=O)NC(=O)c1ccsc1NC(=O)C1=Cc2ccccc2OC1 [Compound 67] | < 1 µg/mL | < 5 µg/mL | > 50 µg/mL
O=C(NC(=O)c1ccsc1NC(=O)c1cn2ccccc2n1)OCCOCc1ccccc1 [Compound 374] | < 1 µg/mL | > 25 µg/mL | 25 to 50 µg/mL (≈ 53.8 to 108 µM)
CCOC(=O)N(C)C(=O)c1ccsc1NC(=O)c1nc2cnccc2s1 [Compound 376] | > 3 µg/mL | > 25 µg/mL | < 25 µg/mL
O=C(NC(=O)c1ccsc1NC(=O)c1nc2cnccc2s1)OCc1cccnc1 [Compound 301] | > 3 µg/mL | > 25 µg/mL | 25 to 50 µg/mL (≈ 56.9 to 114 µM)

SMILES | MIC (Mtb [1]) | MIC (Mtb [2]) | CC50 (in vitro)
CCOC(=O)NC(=O)c1ccsc1NC(=O)c1nc2c(s1)CCN(c1ccccc1)C2 [Compound 97] | < 1 µg/mL | > 25 µg/mL | > 50 µg/mL
CCOC(=O)NC(=O)c1ccsc1NC(=O)c1cccc2cccnc12 [Compound 112] | > 3 µg/mL | > 25 µg/mL | > 50 µg/mL
O=C(NC(=O)c1ccsc1NC(=O)c1nc2cnccc2s1)OCc1ccccc1 [Compound 101] | < 1 µg/mL | 5 to 25 µg/mL (≈ 11.4 to 57 µM) | > 50 µg/mL
O=C(NC(=O)c1ccsc1NC(=O)c1nc2cnccc2s1)OCc1ccc(F)cc1 [Compound 275] | > 3 µg/mL | > 25 µg/mL | 25 to 50 µg/mL (≈ 54.8 to 110 µM)
CCN1CCN(C(=O)c2ccsc2NC(=O)c2nc3ccccc3s2)CC1 [Compound 257] | > 3 µg/mL | 5 to 25 µg/mL (≈ 12.5 to 62.4 µM) | 25 to 50 µg/mL (≈ 62.4 to 125 µM)
CCOC(=O)NC(=O)c1ccsc1NC(=O)c1cc(OC)c2ccccc2n1 [Compound 114] | > 3 µg/mL | > 25 µg/mL | > 50 µg/mL
CCOC(=O)NC(=O)c1ccsc1NC(=O)c1csc(-c2ccccn2)n1 [Compound 133] | > 3 µg/mL | > 25 µg/mL | > 50 µg/mL
CC(C)OC(=O)NC(=O)c1ccsc1NC(=O)c1cnc2ccsc2c1 [Compound 395] | < 1 µg/mL | > 25 µg/mL | < 25 µg/mL
CCOC(=O)NC(=O)c1ccsc1NC(=O)c1nc(-c2ccccc2)oc1C [Compound 130] | > 3 µg/mL | > 25 µg/mL | > 50 µg/mL
CCOC(=O)NC(=O)c1ccsc1NC(=O)c1cnc2ccsc2c1 [Compound 394] | < 1 µg/mL | > 25 µg/mL | < 25 µg/mL
CCOC(=O)NC(=O)c1ccsc1NC(=O)c1cc2ccc(Cl)cc2s1 [Compound 333] | < 1 µg/mL | 5 to 25 µg/mL (≈ 12.2 to 61.1 µM) | 25 to 50 µg/mL (≈ 61.1 to 122 µM)
CCOC(=O)NC(=O)c1ccsc1NC(=O)c1ccc2scnc2c1 [Compound 43] | < 1 µg/mL | 5 to 25 µg/mL (≈ 13.3 to 66.6 µM) | > 50 µg/mL
CCOC(=O)NC(=O)c1ccsc1NC(=O)c1ccnc(NC(=O)CN2CCOCC2)c1 [Compound 46] | < 1 µg/mL | > 25 µg/mL | > 50 µg/mL
CCOC(=O)NC(=O)c1ccsc1NC(=O)c1nc2cnccc2s1 [Compound 82] | < 1 µg/mL | < 5 µg/mL | > 50 µg/mL
CCOC(=O)NC(=O)c1ccsc1NC(=O)c1cnc2c(N3CCOCC3)cnn2c1 [Compound 315] | < 1 µg/mL | > 25 µg/mL | 25 to 50 µg/mL (≈ 56.2 to 112 µM)
CC(=O)N1CCC(OC(=O)NC(=O)c2ccsc2NC(=O)c2nc3cnccc3s2)CC1 [Compound 367] | > 3 µg/mL | > 25 µg/mL | 25 to 50 µg/mL (≈ 52.8 to 106 µM)
CCOC(=O)NC(=O)c1ccsc1NC(=O)c1ccc(=O)n(C)c1 [Compound 140] | > 3 µg/mL | 5 to 25 µg/mL (≈ 14.3 to 71.6 µM) | > 50 µg/mL
O=C(NC(=O)c1ccsc1NC(=O)c1cnc2ccnn2c1)OCc1ccccc1C(F)(F)F [Compound 289] | > 3 µg/mL | > 25 µg/mL | < 25 µg/mL
C#CCOC(=O)NC(=O)c1ccsc1NC(=O)c1nc2ccccc2s1 [Compound 303] | < 1 µg/mL | > 25 µg/mL | < 25 µg/mL
CC(C)(C)C(=O)Nc1cc(C(=O)Nc2sccc2C(=O)NC(=O)OCCN2CCOCC2)ccn1 [Compound 32] | > 3 µg/mL | > 25 µg/mL | > 50 µg/mL
CCOC(=O)NC(=O)c1ccsc1NC(=O)c1cc(O)ncn1 [Compound 147] | > 3 µg/mL | > 25 µg/mL | > 50 µg/mL
CCOC(=O)NC(=O)c1ccsc1NC(=O)c1cn2c(n1)sc1ccccc12 [Compound 292] | > 3 µg/mL | > 25 µg/mL | > 50 µg/mL
